Results on one compound are retold here after paper PMC9348805, “Identification of the NRF2 transcriptional network as a therapeutic target for trigeminal neuropathic pain” (Science Advances, 2022).

The target in the experiment is T1, TRPA1 (Homo sapiens, UniProt O75762).
T1 construct: full-length myc-tagged TRPA1 cDNA (gift of M. Caterina), transiently expressed in HEK-293 cells; Fura-2 calcium imaging
The experiment in a line: calcium imaging (Fura-2) of HEK-293 cells transiently expressing TRPA1, with vector and mutant controls. The format is cell-based.

T1 sequence (O75762 whole entry): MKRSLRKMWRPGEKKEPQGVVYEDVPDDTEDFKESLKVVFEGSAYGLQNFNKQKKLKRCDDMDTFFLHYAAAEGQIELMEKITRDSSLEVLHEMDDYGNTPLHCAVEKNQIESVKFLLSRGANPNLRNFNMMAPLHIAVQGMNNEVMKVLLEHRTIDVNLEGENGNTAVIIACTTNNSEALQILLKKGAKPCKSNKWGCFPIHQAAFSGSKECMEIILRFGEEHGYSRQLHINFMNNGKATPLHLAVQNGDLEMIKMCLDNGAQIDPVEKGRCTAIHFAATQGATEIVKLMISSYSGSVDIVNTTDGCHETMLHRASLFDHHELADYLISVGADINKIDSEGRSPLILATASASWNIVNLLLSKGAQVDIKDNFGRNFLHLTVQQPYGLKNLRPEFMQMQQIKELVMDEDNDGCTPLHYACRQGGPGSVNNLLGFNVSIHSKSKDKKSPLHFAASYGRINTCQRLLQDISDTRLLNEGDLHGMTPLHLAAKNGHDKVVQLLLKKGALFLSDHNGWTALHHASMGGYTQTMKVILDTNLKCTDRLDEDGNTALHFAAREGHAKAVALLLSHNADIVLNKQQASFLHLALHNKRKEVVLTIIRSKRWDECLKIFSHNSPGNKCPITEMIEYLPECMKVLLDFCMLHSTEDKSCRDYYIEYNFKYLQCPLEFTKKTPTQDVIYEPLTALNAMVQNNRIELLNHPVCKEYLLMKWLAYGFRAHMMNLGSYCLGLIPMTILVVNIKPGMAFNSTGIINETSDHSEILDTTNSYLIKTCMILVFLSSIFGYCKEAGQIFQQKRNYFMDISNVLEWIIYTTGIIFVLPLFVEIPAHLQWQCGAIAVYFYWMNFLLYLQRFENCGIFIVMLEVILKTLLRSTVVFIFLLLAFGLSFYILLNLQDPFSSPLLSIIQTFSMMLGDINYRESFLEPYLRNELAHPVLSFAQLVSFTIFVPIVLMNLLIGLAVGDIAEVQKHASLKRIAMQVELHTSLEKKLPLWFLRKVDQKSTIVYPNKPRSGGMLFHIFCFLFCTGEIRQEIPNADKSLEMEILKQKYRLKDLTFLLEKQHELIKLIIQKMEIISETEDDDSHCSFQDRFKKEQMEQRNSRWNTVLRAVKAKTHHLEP

For orientation: EC50 means the midpoint of the concentration-response curve. As to `CCCCCC(O)C=CC=O` (stereo not shown) [4-HNE], the EC50 stood at 48 µM.
